In patent US20240400620A1, “Compositions Containing Coronavirus Proteins and Epitopes” (priority 2021, published 2024):
Read-outs that look alike come from different tables or passages of the source. No end group written: not given here.

Columns and labels:
[1] = tested on: activated CD4+ T cells from OC43-infected HLA-DRB1*0101 Ifnar1^−/− mice; assay type: cell-based; conditions: for expansion of peptide-reactive IFNγ+ CD4+ T cells: day 8 post-OC43 infection
[2] = tested on: splenocytes or lung leukocytes (IFNγ-producing peptide-specific T cells) from DNA-vaccinated HLA-B*0702 mice; assay: IFNγ-ELISpot, cells of DNA-vaccinated HLA-B*0702 Ifnar1^−/− mice stimulated with SARS-CoV-2 peptides; assay type: cell-based; conditions: 20 h; for IFNγ secretion (ELISpot): lung leukocytes, 10 μg/mL peptide; for IFNγ production (ELISpot) compared with unstimulated control cells: splenocytes, day 21, 10 μg/mL peptide
[3] = tested on: splenocytes or lung leukocytes from DNA-vaccinated HLA-DRB1*0101 mice; assay type: cell-based; conditions: for stimulation of IFNγ production (ELISpot): splenocytes
[4] = tested on: activated (CD44+ CD62L−) CD8+ T cells from B.1.351-infected HLA-B*0702 Ifnar1^−/− mice; assay type: cell-based
[5] = tested on: activated CD8+ T cells from OC43-infected HLA-B*0702 Ifnar1^−/− mice; assay type: cell-based; conditions: splenocytes
[6] = tested on: SARS-CoV-2 B.1.351; conditions: mouse, in vivo
[7] = spleen, day 16 post-OC43 infection

RCSFYEDFLEYHDVR [ORF8101-115]
frequencies of cross-reactive IFNγ+ CD4+ T cells [1]: significantly increased

VLAAVYRINWITGGI (misc_feature - Membrane; Severe acute respiratory syndrome-related coronavirus) [M66-80]
expansion of peptide-reactive IFNγ+ CD4+ T cells ([1]; spleen): statistically significant

FPRGQGVPIN (misc_feature - Nucleoprotein; Severe acute respiratory syndrome-related coronavirus) [N66-75]
IFNγ secretion (ELISpot) [2]: significant IFNγ secretion | IFNγ production (ELISpot) compared with unstimulated control cells [2]: significantly higher levels of IFNγ

YYRRATRRIRGGDGK (misc_feature - Nucleoprotein; Severe acute respiratory syndrome-related coronavirus) [N86-100]
IL-2 production by CD4+ T cells ([1]; day 16 post-OC43 infection): stimulated IL-2 production | expansion of polyfunctional cross-reactive IFNγ+/TNF+ CD4+ T cells [1, 7]: significantly expanded

TSNFRVQPTESIVRF [S315-329]
stimulation of IFNγ response (ELISpot) ([3]; lung leukocytes): significantly stimulated a response | stimulation of IFNγ production (ELISpot) [3]: significant stimulation of IFNγ production | IFNγ response (ELISpot) ([3]; splenocytes and lung leukocytes): capable of stimulating both splenocytes and lung leukocytes

FARTRSMWSF (misc_feature - Membrane; Severe acute respiratory syndrome-related coronavirus) [M103-112]
frequencies of activated IFNγ+, IFNγ+/TNF+, IFNγ+/CD107a+ and IFNγ+/TNF+/IL-2+ CD8+ T cells compared with unstimulated cultures [4]: no significant expansion

QSINFVRIIMRLWLC [ORF3a116-130]
expansion of peptide-reactive IFNγ+ CD4+ T cells ([1]; spleen): statistically significant

PKEITVATSRTLSYY (misc_feature - Membrane; Severe acute respiratory syndrome-related coronavirus) [M165-179]
stimulation of IFNγ production (ELISpot) [3]: significant stimulation of IFNγ production

TNSPRRARSVA (misc_feature - Spike; Severe acute respiratory syndrome-related coronavirus) [S678-688]
frequencies of activated IFNγ+, IFNγ+/TNF+, IFNγ+/CD107a+ and IFNγ+/TNF+/IL-2+ CD8+ T cells compared with unstimulated cultures [4]: no significant expansion | IFNγ production (ELISpot) compared with unstimulated control cells [2]: significantly higher levels of IFNγ

APHGVVFL [S1056-1063]
frequencies of activated IFNγ+, IFNγ+/TNF+, IFNγ+/CD107a+ and IFNγ+/TNF+/IL-2+ CD8+ T cells compared with unstimulated cultures [4]: no significant expansion | IFNγ secretion (ELISpot) [2]: significant IFNγ secretion | IFNγ production (ELISpot) compared with unstimulated control cells [2]: significantly higher levels of IFNγ

SPRRARSVA (misc_feature - Spike; Severe acute respiratory syndrome-related coronavirus) [S680-688]
IFNγ production (ELISpot) compared with unstimulated control cells [2]: significantly higher levels of IFNγ

LYLYALVYFLQSINF [ORF3a106-120]
IL-2 production by CD4+ T cells ([1]; day 16 post-OC43 infection): stimulated IL-2 production

KFPRGQGVPI (misc_feature - Nucleoprotein; Severe acute respiratory syndrome-related coronavirus) [N65-74]
IFNγ secretion (ELISpot) [2]: significant IFNγ secretion | IFNγ production (ELISpot) compared with unstimulated control cells [2]: significantly higher levels of IFNγ

VPVAIHADQL (misc_feature - Spike; Severe acute respiratory syndrome-related coronavirus) [S620-629]
IFNγ production (ELISpot) compared with unstimulated control cells [2]: significantly higher levels of IFNγ

LNTLVKQLSSNFGAI [S959-973]
stimulation of IFNγ production (ELISpot) [3]: significant stimulation of IFNγ production

LPKGIMMNV (misc_feature - ORF1ab; Severe acute respiratory syndrome-related coronavirus) [ORF1ab6834-6844]
frequencies of activated IFNγ+ and IFNγ/TNF+ CD8+ T cells ([5]; day 8 post-OC43 infection): increase was significant

LSPRWYFYYL [N104-113]
frequencies of N104-113-reactive polyfunctional (IFNγ+/TNF+, IFNγ+/TNF+/IL-2+) and cytotoxic multifunctional (IFNγ+/CD107a+) CD8+ T cells vs mock-immunized [6]: significantly increased

SPRWYFYYLG (misc_feature - Nucleoprotein; Severe acute respiratory syndrome-related coronavirus) [N105-114]
IFNγ production (ELISpot) compared with unstimulated control cells [2]: significantly higher levels of IFNγ

FPRGQGVPINT (misc_feature - Nucleoprotein; Severe acute respiratory syndrome-related coronavirus) [N66-76]
frequencies of activated IFNγ+, IFNγ+/TNF+, IFNγ+/CD107a+ and IFNγ+/TNF+/IL-2+ CD8+ T cells compared with unstimulated cultures [4]: no significant expansion | IFNγ secretion (ELISpot) [2]: significant IFNγ secretion | IFNγ production (ELISpot) compared with unstimulated control cells [2]: significantly higher levels of IFNγ

LKFPRGQGVPI (misc_feature - Nucleoprotein; Severe acute respiratory syndrome-related coronavirus) [N64-74]
IFNγ secretion (ELISpot) [2]: significant IFNγ secretion | IFNγ production (ELISpot) compared with unstimulated control cells [2]: significantly higher levels of IFNγ

LSPRWYFYYLGTGPEAGL (misc_feature - Nucleocapsid; Severe acute respiratory syndrome-related coronavirus) [N104-121]
expansion of peptide-reactive IFNγ+ CD8+ T cells ([5]; day 16 post-OC43 infection): 9 fold | expansion of peptide-reactive IFNγ+/TNF+ CD8+ T cells ([5]; day 16 post-OC43 infection): 12 fold

GSLVVRCSFYEDFLE [ORF896-110]
frequencies of cross-reactive IFNγ+ CD4+ T cells [1, 7]: significantly increased

SPRRARSV (misc_feature - Spike; Severe acute respiratory syndrome-related coronavirus) [S680-687]
IFNγ production (ELISpot) compared with unstimulated control cells [2]: significantly higher levels of IFNγ

LPKEITVAT (misc_feature - Membrane; Severe acute respiratory syndrome-related coronavirus) [M164-172]
frequencies of activated IFNγ+, IFNγ+/TNF+, IFNγ+/CD107a+ and IFNγ+/TNF+/IL-2+ CD8+ T cells compared with unstimulated cultures [4]: no significant expansion
